# Measured values as given in patent publication US20230270824A1, “INTERFERON-BASED CANCER TREATMENT METHOD AND PHARMACEUTICAL COMPOSITION” (XIAMEN AMOYTOP BIOTECH CO., LTD., priority 2019, published 2023).
# Where two headings read alike, the source gives them in different places.
# B1: deglycosylated mIFN-α4: recombinant mouse interferon α4 (GenBank NP_034634) expressed in Pichia pastoris, glycosyl groups removed by glycosidase (protein, UniProt P07351 25-186, looked up)
# Interferon alpha-4: CDLPHTYNLGNKRALTVLEEMRRLPPLSCLKDRKDFGFPLEKVDNQQIQKAQAILVLRDLTQQILNLFTSKDLSATWNATLLDSFCNDLHQQLNDLKACVMQEPPLTQEDSLLAVRTYFHRITVYLRKKKHSLCAWEVIRAEVWRALSSSTNLLARLSEEKE
# modifications: deglycosylated
# notes: recombinant mouse interferon α4 (GenBank NP_034634) expressed in Pichia pastoris, glycosyl groups removed by glycosidase
# Columns and labels:
# [1] = system: transplanted liver cancer H22; assay: Interferon combined with epirubicin, transplanted liver cancer H22 in mice (Example 10); format: in vivo, BALB/c mice; settings: epirubicin only, 3.5 mg/kg/w i.p.
# Description: The manufacturer of epirubicin was Beijing Union Pharmaceutical Factory.
# Statistical tests were all two-sided tests.
# [2] = system: transplanted breast cancer 4T1; assay: Interferon combined with gemcitabine, transplanted breast cancer 4T1 in mice (Example 9); format: in vivo, BALB/c mice; settings: gemcitabine only, 60 mg/kg i.p. once a week, 53 days after tumor inoculation, 60 mg/kg
# Procedure: (§1) In this example, a comparative study on the efficacy of PEG-mIFN-α4 intermittent administration (once every 48 hours for 3 consecutive times, then drug withdrawal for 144 hours; for 5 rounds), PEG-mIFN-α4 continuous administration (once every 48 hours for 25 consecutive times), PEG-mIFN-α4 in combination with gemcitabine (PEG-mIFN-α4: once every 48 hours for 3 consecutive times, then drug withdrawal for 240 hours, 4 rounds; gemcitabine: once a week) on transplanted breast cancer 4T1 in mice was performed.
# (§2) On the day when the tumor was inoculated, they were randomly divided into PEG-mIFN-α4 continuous administration group (N=24, female 12, male 12), PEG-mIFN-α4 intermittent administration group (N=24, female 12, male 12), the normal saline control group (N=24, female 12, male 12), the gemcitabine only group (N=24, female 12, male 12), and PEG-mIFN-α4 combined with gemcitabine group (N=24, female 12, male 12).
# (§3) For the PEG-mIFN-α4 intermittent administration group, PEG-mIFN-α4 was administered once every 48 hours for 3 consecutive times, then drug withdrawal for 144 hours; for 5 rounds. For the PEG-mIFN-α4 continuous administration group, PEG-mIFN-α4 was administered once every 48 hours. For the PEG-mIFN-α4 combined with gemcitabine group, PEG-mIFN-α4 was administered once every 48 hours for 3 consecutive times, then drug withdrawal for 240 hours; for 4 rounds; and gemcitabine was administered once a week. For the gemcitabine only group, gemcitabine was administered once a week. For the saline control group, equal volume of saline was administered. Gemcitabine was injected intraperitoneally, 60 mg/kg.
# (§4) SAS9.4 software was used for comparing the difference in mortality, and the statistical tests were all two-sided tests.
# [3] = system: transplanted lung cancer LLC; assay: Interferon combined with gemcitabine, transplanted lung cancer LLC in mice (Example 6); format: in vivo, C57BL/6N mice; settings: gemcitabine only, 60 mg/kg i.p. once a week, Day 64 post tumor inoculation, 60 mg/kg
# Procedure: as §1, with “four” for “3”, “192” for “144”, “32” for “25”, “360” for “240”, “[…]” for “breast”, “LLC” for “4T1”
# as §2, with “(N=26,” for “(N=24,”, “13,” for “12,”, “13),” for “12),”, “13).” for “12).”
# as §3, with “4” for “3”, “192” for “144”, “[…]” for “5”, “360” for “240”
# as §4
# [4] = system: transplanted melanoma B16; assay: Interferon combined with gemcitabine, transplanted melanoma B16 in mice (Example 8); format: in vivo, C57BL/6N mice; settings: gemcitabine only, 60 mg/kg i.p. once a week, 48 days after tumor inoculation, 60 mg/kg
# Procedure: as §1, with “240” for “144”, “4” for “5”, “24” for “25”, “melanoma B16” for “breast cancer 4T1”
# as §2, with “(N=28,” for “(N=24,”, “14,” for “12,”, “14),” for “12),”, “14).” for “12).”
# as §3, with “240” for “144”, “4” for “5”
# as §4
# [5] = system: transplanted liver cancer H22; assay: Interferon combined with gemcitabine, transplanted liver cancer H22 in mice (Example 5); format: in vivo, BALB/c mice; settings: gemcitabine only, 60 mg/kg i.p. once a week, 108 days observation
# Procedure: (§5) In this example, a comparative study on the efficacy of PEG-mIFN-α4 intermittent administration (once every 48 hours for three consecutive times, then drug withdrawal for 144 hours; for 8 rounds), PEG-mIFN-α4 continuous administration (once every 48 hours for 42 consecutive times), PEG-mIFN-α4 in combination with gemcitabine (PEG-mIFN-α4: once every 48 hours for three consecutive times, then drug withdrawal for 240 hours, 6 rounds; gemcitabine: once a week) on H22 transplanted liver cancer in mice was performed.
# as §2
# Gemcitabine was injected intraperitoneally, 60 mg/kg.
# as §3, with “for three” for “for 3”, “for 8” for “for 5”, “for 6” for “for 4”, “administered.” for “administered. Gemcitabine was injected intraperitoneally, 60 mg/kg.”
# (§6) Survival analysis was performed for all groups to compare the differences between groups.
# [6] = system: transplanted colorectal cancer CT26; assay: Interferon combined with gemcitabine, transplanted colorectal cancer CT26 in mice (Example 7); format: in vivo, BALB/c mice; settings: gemcitabine only, 60 mg/kg i.p. once a week, 110 days observation, 60 mg/kg
# Procedure: as §5, with “for 11” for “for 8”, “for 55” for “for 42”, “hours, 8” for “hours, 6”, “on” for “on H22”, “transplanted colorectal” for “transplanted liver”, “cancer CT26” for “cancer”
# The anticancer agent is Gemcitabine (Jiangsu HAOSEN Pharmaceutical).
# as §2
# Gemcitabine was injected intraperitoneally, 60 mg/kg. […] For the PEG-mIFN-α4 intermittent administration group, PEG-mIFN-α4 was administered once every 48 hours for three consecutive times, then drug withdrawal for 144 hours; for 11 rounds. For the PEG-mIFN-α4 continuous administration group, PEG-mIFN-α4 was administered once every 48 hours. For the PEG-mIFN-α4 combined with gemcitabine group, PEG-mIFN-α4 was administered once every 48 hours for three consecutive times, then drug withdrawal for 240 hours; for 8 rounds; and gemcitabine was administered once a week. For the gemcitabine only group, gemcitabine was administered once a week. For the saline control group, equal volume of saline was administered.
# as §6
# [7] = system: transplanted liver cancer H22; settings: oxaliplatin only, 10 mg/kg/w i.p.
# Procedure: 6-8 weeks old, 18-22 g SPF grade BALB/c mice were subcutaneously inoculated with liver cancer H22 tumor cells (1×10^6 cells/mL, 0.2 ml/mouse) in the right forelimb axillary. 3 days after tumor inoculation, they were randomly divided into groups, with 28 mice in each group (fifty-fifty female and male mice), including normal saline control group, oxaliplatin only group, and PEG-mIFN-α4 combined with oxaliplatin group.
# The administration was started on the day after grouping, once a week. PEG-mIFN-α4 was injected subcutaneously on the back of the neck, and oxaliplatin was injected intraperitoneally, in a dose of 10 mg/kg each time. The normal saline control group was administered an equal volume of normal saline.
# All groups were subjected to survival curve analysis, and the median survival time was compared.
# [8] = system: transplanted liver cancer H22; settings: paclitaxel only, 10 mg/kg/w
# Procedure: In this example, BALB/c mice were purchased from Beijing Vital River Laboratory Animal Technology Co., Ltd., and the H22 mouse liver cancer cell line was purchased from the China Center for Type Culture Collection (CCTCC). The manufacturer of paclitaxel was Qilu Pharmaceutical (Hainan) Co., Ltd.
# 6-8 weeks old, 18-22 g SPF grade BALB/c mice were subcutaneously inoculated with liver cancer H22 tumor cells (1×10^6 cells/mL, 0.2 ml/mouse) in the right forelimb axillary. 3 days after tumor inoculation, they were randomly divided into groups, with 28 mice in each group (fifty-fifty female and male mice), including normal saline control group, paclitaxel only group, and PEG-mIFN-α4 combined with paclitaxel group.
# The administration was started on the day after grouping, once a week. PEG-mIFN-α4 was injected subcutaneously on the back of the neck, in a dose of 1 mg/mouse each time, and oxaliplatin was injected intraperitoneally, in a dose of 10 mg/kg each time.
# All groups were subjected to survival curve analysis, and the median survival time was compared. SAS 9.4 and office2010 software were used for statistical analysis. Statistical tests were all two-sided tests.
# [9] = system: mouse fibroblast/encephalomyocarditis virus (L929/EMCV); assay: Specific activity by mouse fibroblast/encephalomyocarditis virus (L929/EMCV) cytopathic inhibition method; format: cell-based; settings: stock solution; commercial mIFN-α4 (R&D) as the standard
# Procedure: (§7) The bacterial endotoxin content of the deglycosylated mIFN-α4 stock solution was determined by the Limulus reagent method as lower than 60 EU/mg. specific activity was determined as 5.4×10^8 U/mg by using the commercial mIFN-α4 (R&D, catalog number 12115-1) as the standard, and by using the mouse fibroblast/encephalomyocarditis virus (L929/EMCV) cytopathic inhibition method.
# as §7, with “PEG-mIFN-α4” for “deglycosylated mIFN-α4”, “15” for “60”, “Specific” for “specific”, “6.1×10^6” for “5.4×10^8”
molecule,measurement,setting,value
COc1cccc2c1C(=O)c1c(O)c3c(c(O)c1C2=O)C[C@@](O)(C(=O)CO)C[C@@H]3O[C@H]1C[C@H](N)[C@@H](O)[C@H](C)O1 [Epirubicin],"Median survival period (Time after tumor inoculation, days)",[1],15.0 days
same,"Median survival period (Time after tumor inoculation, days)",[1]; listed as epirubicin,15 days
"Nc1ccn([C@@H]2O[C@H](CO)[C@@H](O)C2(F)F)c(=O)n1 [Gemcitabine, reference compound]",Mortality,[2],87.5%
same,Mortality,[2]; listed as gemcitabine,87.5%
same,Mortality,[3],80.8%
same,Mortality,[3]; listed as gemcitabine,80.8%
same,Mortality,[4],89.3%
same,Mortality,[4]; listed as gemcitabine,89.3%
same,Mean survival period (days post tumor inoculation),[5],58.5 days
same,Mean survival period (days post tumor inoculation),[6],99.0 days
same,Mean survival period (days post tumor inoculation),[6]; listed as gemcitabine,89.0 days
O=C1[O][Pt]2([NH][C@@H]3CCCC[C@H]3[NH]2)[O]C1=O [Oxaliplatin],"Median survival period (Time after tumor inoculation, days)",[7],12.5 days
CC(=O)O[C@H]1C(=O)[C@@]2(C)[C@H]([C@H](OC(=O)c3ccccc3)[C@]3(O)C[C@H](OC(=O)[C@H](O)[C@@H](NC(=O)c4ccccc4)c4ccccc4)C(C)=C1C3(C)C)[C@]1(OC(C)=O)CO[C@@H]1C[C@@H]2O [Paclitaxel],"Median survival period (Time after tumor inoculation, days)",[8],17.0 days
same,"Median survival period (Time after tumor inoculation, days)",[8]; listed as paclitaxel,17 days
B1,Specific activity,[9],5.4×10^8 U/mg
